Laboratory results as given in PubChem BioAssay AID485340 (Southern Research Specialized Biocontainment Screening …, 2010).
Activity calls are given as the source filed them. No rule for the calls is given here.

System: M. tuberculosis growth, meropenem IC50 shift with compound
Assay: confirmation, meropenem IC50 shift (AID 485340);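 also: growth read after one week of culture plus overnight Alamar Blue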
[1] = compound alone IC50 vs Mtb, compound dose (near its own IC50) 2.35 µM
[2] = compound dose (near its own IC50) 2.35 µM
[3] = compound alone IC50 vs Mtb, compound dose (near its own IC50) 9.38 µM
[4] = compound dose (near its own IC50) 9.38 µM
[5] = compound alone IC50 vs Mtb, compound dose (near its own IC50) 0.15 µM
[6] = compound dose (near its own IC50) 0.15 µM
[7] = compound alone IC50 vs Mtb, compound dose (near its own IC50) 1.18 µM
[8] = compound dose (near its own IC50) 1.18 µM
[9] = compound alone IC50 vs Mtb, compound dose (near its own IC50) 4.69 µM
[10] = compound dose (near its own IC50) 4.69 µM
[11] = compound alone IC50 vs Mtb, compound dose (near its own IC50) 0.59 µM
[12] = compound dose (near its own IC50) 0.59 µM

## CC(C)Cn1c2c(c(O)c(C(=O)Nc3nccs3)c1=O)CCCC2
[1]
  IC50: 3.22 µM
[2]
  IC50: 4.05 µM (inactive)

## O=C(Cc1ccccc1Cl)Nc1nc2ccccc2[nH]1
[3]
  IC50: 9.31 µM
[4]
  IC50: < 0.52 µM

## O=C(Nc1ccccc1)Nc1csc2ccccc12
[5]
  IC50: 0.2 µM
[6]
  IC50: 4.85 µM (inactive)

## COC(=O)c1sc(-c2ccc(C(C)(C)C)cc2)cc1NC(=O)CCC(=O)O
[7]
  IC50: 1.37 µM
[8]
  IC50: 7.19 µM (inactive)

## COc1c(F)c(F)c(C(=O)Nc2c(C)cc(Br)cc2C)c(F)c1F
[9]
  IC50: 4.58 µM
[10]
  IC50: 5.02 µM (inactive)

## Cc1ccccc1OCC(=O)Nc1ccccc1-c1ccccc1
[9]
  IC50: 6.04 µM
[10]
  IC50: 4.07 µM (inactive)

## CCOC(=O)COc1nc(-c2ccc(Cl)cc2)cc(-c2ccco2)c1C#N
[9]
  IC50: 3.82 µM
[10]
  IC50: 7.14 µM (inactive)

## CCNC(=S)N/N=C1\C(=O)c2cccc3cccc1c23
[9]
  IC50: 5.46 µM
[10]
  IC50: 4.97 µM (inactive)

## CN(C)c1ccc(/C=C/c2nc3ccccc3s2)cc1
[3]
  IC50: 8.97 µM
[4]
  IC50: 3.55 µM (inactive)

## CC(=O)c1c(C)[nH]c(C(=O)OCC(=O)Nc2nnc(-c3ccccc3)o2)c1C
[9]
  IC50: 4.19 µM
[10]
  IC50: 7.02 µM (inactive)

## COC(=O)c1c(-c2ccc(OC)cc2)oc2ccc(-c3cc(OC)c(OC)c(OC)c3)cc12
[3]
  IC50: 7.72 µM
[4]
  IC50: 6.1 µM (inactive)

## Cc1nnc(SCC2=C(C(=O)O)N3C(=O)C(NC(=O)COc4ccc(F)cc4)C3SC2)s1 (stereo not given)
[1]
  IC50: 1.74 µM
[2]
  IC50: 1.04 µM (inactive)

## COC(=O)c1c(C)n(-c2ccccc2)c2ccc(O)cc12
[7]
  IC50: 1.53 µM
[8]
  IC50: 6.07 µM (inactive)

## O=C(NN=C(Cc1ccccc1)Cc1ccccc1)c1ccccc1F
[7]
  IC50: 1.64 µM
[8]
  IC50: 4.28 µM (inactive)

## Cc1nn(-c2ccccc2)cc1/C=N/NC(N)=S
[9]
  IC50: 3.7 µM
[10]
  IC50: 2.68 µM (inactive)

## CO/N=C(\C(=O)N[C@@H]1C(=O)N2C(C(=O)O)=C(COC(C)=O)CS[C@H]12)c1csc(N)n1 (stereo in doubt)
[3]
  IC50: 10.3 µM
[4]
  IC50: 1.01 µM (inactive)

## N/C(=N\c1nc2ccccc2o1)NC(=O)c1ccccc1Br
[5]
  IC50: 0.2 µM
[6]
  IC50: 7.58 µM (inactive)

## NC(=S)N/N=C/c1ccc(/C=N/NC(N)=S)cc1
[1]
  IC50: 2.5 µM
[2]
  IC50: 4.04 µM (inactive)

## C/C(=N\NC(=S)Nc1ccccc1C)c1ccc(O)cc1
[11]
  IC50: 0.552 µM
[12]
  IC50: 7.22 µM (inactive)

## CCOC(=O)c1cnc2cc(-c3ccc(C(C)(C)C)cc3)nn2c1N
[7]
  IC50: 0.899 µM
[8]
  IC50: 7.5 µM (inactive)

## C/C(=N\NC(=O)c1cc(Br)ccc1O)c1ccccn1
[9]
  IC50: 3.88 µM
[10]
  IC50: 1.73 µM (inactive)

## COc1cc(C(=O)Oc2ccccc2/C=N/NC(=O)c2ccc(C)c(Cl)c2)cc(OC)c1OC
[1]
  IC50: 1.96 µM
[2]
  IC50: 4.26 µM (inactive)

## CCSc1nnc(NC(=O)C2Cc3ccccc3CN2C(=O)c2ccco2)s1 (stereo not given)
[1]
  IC50: 2.69 µM
[2]
  IC50: 6.22 µM (inactive)

## COc1cccc(-c2ccc(-c3noc(-c4ccccc4F)n3)c(OC)n2)c1
[3]
  IC50: 9.65 µM
[4]
  IC50: 4.08 µM (inactive)

## COc1cccc(/C=N/NC(=O)CSCC(=O)Nc2ccccc2)c1O
[9]
  IC50: 5.41 µM
[10]
  IC50: 3.28 µM (inactive)

## CSc1nc2cc3c(cc2n1C(=O)c1ccc(C)cc1)OCCO3
[9]
  IC50: 5.15 µM
[10]
  IC50: 4.06 µM (inactive)

## Cc1[nH]n(-c2ccccc2)c(=O)c1/C=N/NC(=O)c1ccoc1C
[11]
  IC50: 0.655 µM
[12]
  IC50: 7.56 µM (inactive)

## Cc1cc(NC(=O)/C=C/c2ccccc2Cl)n(-c2nc3ccccc3[nH]2)n1
[1]
  IC50: 1.94 µM
[2]
  IC50: 5.88 µM (inactive)

## CCOC(=O)Cn1c(=NC(=O)C2CC2)sc2c(C)cc(C)cc21
[3]
  IC50: 9.84 µM
[4]
  IC50: 3.54 µM (inactive)

## CCc1ccc(NC(=O)c2c(Cl)nc(C)c(Cl)c2C)cc1
[3]
  IC50: 7.1 µM
[4]
  IC50: 7.77 µM (inactive)

## COc1ccc2c(c1)c(C(C)=O)c(C)n2-c1ccccc1
Compound alone IC50 vs Mtb, compound dose (near its own IC50) 0.3 µM
  IC50: 0.336 µM
Compound dose (near its own IC50) 0.3 µM
  IC50: 7.65 µM (inactive)

## C=C1C(=O)O[C@@H]2[C@H]1[C@@H](OC(=O)/C(C)=C/C)C/C(C)=C\C(=O)/C=C(\C)[C@@H]2O
[7]
  IC50: 1.24 µM
[8]
  IC50: 6.46 µM (inactive)

## COc1cccc(/C=N/NC(=O)c2cnccn2)c1O
[1]
  IC50: 2.58 µM
[2]
  IC50: 3.28 µM (inactive)

## COc1cccc(/C=N/NC(=O)NC23CC4CC(CC(C4)C2)C3)c1O
[1]
  IC50: 2.93 µM
[2]
  IC50: 5.23 µM (inactive)

## N#Cc1c(-c2cccs2)cc(-c2ccccn2)nc1N
[3]
  IC50: 6.92 µM
[4]
  IC50: 0.73 µM

## NC(=S)N/N=C/c1ccc2ccccc2c1
[1]
  IC50: 2.02 µM
[2]
  IC50: 1.95 µM (inactive)

## Nc1c2c(nc3sc4c(c13)CCCC4)-c1ccccc1CC2
[9]
  IC50: 6.11 µM
[10]
  IC50: 6.03 µM (inactive)

## O=C1O/C(=C/c2ccccc2)N=C1c1ccccc1
[7]
  IC50: 1.34 µM
[8]
  IC50: 4.56 µM (inactive)

## O=C(COC(=O)C1CC1)c1c[nH]c2ccccc12
[7]
  IC50: 0.999 µM
[8]
  IC50: 4.65 µM (inactive)

## CSc1ncnc2c1ccn2CC(=O)Nc1ccc(C)c(C)c1
[3]
  IC50: 8.44 µM
[4]
  IC50: 7.31 µM (inactive)
